Assay [1] concerns the target GDP-bound NRAS wild-type protein (Homo sapiens, UniProt P01111). Kind of assay: Binding to NRAS by surface plasmon resonance (SPR), Single Cycle Kinetics. As to conditions: KD ratio NRAS/KRAS, SPR.
Assay [2] deals with GDP-bound HRAS wild-type protein (Homo sapiens, UniProt P01112). Kind of assay: Binding to HRAS by surface plasmon resonance (SPR), Single Cycle Kinetics. Particulars: KD ratio HRAS/KRAS, SPR.

Structures are written as SMILES. *1 amine or outer side, *2 acyl side, *3 side chain or, on linkers, in order; H or OH if unused. Where a SMILES comes first, the peptide text is derived from it. Bridges are numbered along the chain shown (N, C = ends). [ ]: non-standard residue; d: D form. The star is where a group is joined. X24 = O=C([C@H](Cc1ccc(C(F)(F)F)cc1)N(CCC(F)(F)F)[*:1])[*:2]; X21 = O=C([C@H](Cc1ccc(C(F)(F)F)cc1)N(CC1CCCC1)[*:1])[*:2]; X36 = CC(C)CCN([C@@H](Cc1ccc(C(F)(F)F)cc1)C(=O)[*:2])[*:1]; hPhe(3-Cl-4-CF3) = N[C@@H](CCc1ccc(C(F)(F)F)c(Cl)c1)C(=O)O; X18 = C=CCCN([C@@H](Cc1ccc(C(F)(F)F)cc1)C(=O)[*:2])[*:1]; X42 = COCCCN([C@@H](Cc1ccc(C(F)(F)F)cc1)C(=O)[*:2])[*:1]; X11 = C=CCN([C@@H](Cc1ccc(C(F)(F)F)cc1)C(=O)[*:2])[*:1]; X28 = C#CCN([C@@H](Cc1ccc(C(F)(F)F)cc1)C(=O)[*:2])[*:1]; X32 = COCCN([C@@H](Cc1ccc(C(F)(F)F)cc1)C(=O)[*:2])[*:1]; X40 = CCCN([C@@H](Cc1ccc(OC)cc1)C(=O)[*:2])[*:1]; NMeGly(cPent) = CN[C@H](C(=O)O)C1CCCC1; NMeD = CN[C@@H](CC(=O)O)C(=O)O; NMeL = CN[C@@H](CC(C)C)C(=O)O; Morpholide = C1CN(*)CCO1; NMeA = CN[C@@H](C)C(=O)O; Ac5c = NC1(C(=O)O)CCCC1; Aze = O=C(O)[C@@H]1CCN1; Sar = CNCC(=O)O

We go through nine molecules from patent US20250230193A1, “CYCLIC COMPOUND HAVING SELECTIVE KRAS INHIBITORY EFFECT ON HRAS AND NRAS” (CHUGAI SEIYAKU KABUSHIKI KAISHA, priority 2022, published 2025).

GDP-bound NRAS wild-type protein, sequence (P01111 whole entry): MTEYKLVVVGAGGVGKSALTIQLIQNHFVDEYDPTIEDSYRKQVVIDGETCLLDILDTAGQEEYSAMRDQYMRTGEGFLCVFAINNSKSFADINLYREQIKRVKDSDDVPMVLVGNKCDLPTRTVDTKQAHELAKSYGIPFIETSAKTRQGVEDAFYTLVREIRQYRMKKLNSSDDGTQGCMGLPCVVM
GDP-bound HRAS wild-type protein, sequence (P01112 whole entry): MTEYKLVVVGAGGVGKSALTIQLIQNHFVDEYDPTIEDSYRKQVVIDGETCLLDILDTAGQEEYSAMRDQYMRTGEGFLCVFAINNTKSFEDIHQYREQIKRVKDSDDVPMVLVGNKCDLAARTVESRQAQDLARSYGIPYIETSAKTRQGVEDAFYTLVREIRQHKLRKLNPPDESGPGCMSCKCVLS

Turning to `CC[C@H](C)[C@@H]1NC(=O)[C@H](CC(C)C)N(C)C(=O)C[C@@H](C(=O)N2CCOCC2)N(C)C(=O)[C@H](C2CCCC2)N(C)C(=O)C2(CCCC2)NC(=O)[C@@H]2CCCN2C(=O)[C@H](CCc2ccc(C(F)(F)F)c(Cl)c2)NC(=O)CN(C)C(=O)[C@H](Cc2ccc(C(F)(F)F)cc2)N(CC2CCCC2)C(=O)CN(C)C(=O)CN(C)C1=O` [PP0124] ([NMeL]I[Sar][Sar][X21][Sar][hPhe(3-Cl-4-CF3)]P[Ac5c][NMeGly(cPent)][NMeD]-Morpholide; lactam N-11), the “NRAS/KRAS (ratio of KD for GDP-bound NRAS wild-type to KD for KRAS)” value in assay [1] was “C (A compound having a KD ratio of 0.1 or more and less than 3 is denoted as C)”. For the same molecule, in assay [2], the “HRAS/KRAS (ratio of KD for GDP-bound HRAS wild-type to KD for KRAS)” value was “C (A compound having a KD ratio of 0.1 or more and less than 3 is denoted as C)”.
`CC[C@H](C)[C@@H]1NC(=O)[C@H](CC(C)C)N(C)C(=O)C[C@@H](C(=O)N2CCOCC2)N(C)C(=O)[C@H](C2CCCC2)N(C)C(=O)C2(CCCC2)NC(=O)[C@@H]2CCCN2C(=O)[C@H](CCc2ccc(C(F)(F)F)c(Cl)c2)NC(=O)CN(C)C(=O)[C@H](Cc2ccc(C(F)(F)F)cc2)N(CCC(C)C)C(=O)CN(C)C(=O)CN(C)C1=O` [PP0126] ([NMeL]I[Sar][Sar][X36][Sar][hPhe(3-Cl-4-CF3)]P[Ac5c][NMeGly(cPent)][NMeD]-Morpholide; lactam N-11): the “NRAS/KRAS (ratio of KD for GDP-bound NRAS wild-type to KD for KRAS)” value in assay [1] is “C (A compound having a KD ratio of 0.1 or more and less than 3 is denoted as C)”. Further, in assay [2], the “HRAS/KRAS (ratio of KD for GDP-bound HRAS wild-type to KD for KRAS)” value was “C (A compound having a KD ratio of 0.1 or more and less than 3 is denoted as C)”.
With `C=CCN1C(=O)CN(C)C(=O)CN(C)C(=O)[C@H]([C@@H](C)CC)NC(=O)[C@H](CC(C)C)N(C)C(=O)C[C@@H](C(=O)N2CCOCC2)N(C)C(=O)[C@H](C2CCCC2)N(C)C(=O)C2(CCCC2)NC(=O)[C@@H]2CCCN2C(=O)[C@H](CCc2ccc(C(F)(F)F)c(Cl)c2)NC(=O)CN(C)C(=O)[C@@H]1Cc1ccc(C(F)(F)F)cc1` [PP0128] ([NMeL]I[Sar][Sar][X11][Sar][hPhe(3-Cl-4-CF3)]P[Ac5c][NMeGly(cPent)][NMeD]-Morpholide; lactam N-11), the “NRAS/KRAS (ratio of KD for GDP-bound NRAS wild-type to KD for KRAS)” value in assay [1] was “C (A compound having a KD ratio of 0.1 or more and less than 3 is denoted as C)”. In assay [2], the “HRAS/KRAS (ratio of KD for GDP-bound HRAS wild-type to KD for KRAS)” value was “C (A compound having a KD ratio of 0.1 or more and less than 3 is denoted as C)”.
As to `C=CCCN1C(=O)CN(C)C(=O)CN(C)C(=O)[C@H]([C@@H](C)CC)NC(=O)[C@H](CC(C)C)N(C)C(=O)C[C@@H](C(=O)N2CCOCC2)N(C)C(=O)[C@H](C2CCCC2)N(C)C(=O)C2(CCCC2)NC(=O)[C@@H]2CCCN2C(=O)[C@H](CCc2ccc(C(F)(F)F)c(Cl)c2)NC(=O)CN(C)C(=O)[C@@H]1Cc1ccc(C(F)(F)F)cc1` [PP0129] ([NMeL]I[Sar][Sar][X18][Sar][hPhe(3-Cl-4-CF3)]P[Ac5c][NMeGly(cPent)][NMeD]-Morpholide; lactam N-11), the “NRAS/KRAS (ratio of KD for GDP-bound NRAS wild-type to KD for KRAS)” value in assay [1] is “B (a compound having 3 or more and less than 10 is denoted as B)”. For the same molecule, in assay [2], the “HRAS/KRAS (ratio of KD for GDP-bound HRAS wild-type to KD for KRAS)” value is “C (A compound having a KD ratio of 0.1 or more and less than 3 is denoted as C)”.
Turning to `C#CCN1C(=O)CN(C)C(=O)CN(C)C(=O)[C@H]([C@@H](C)CC)NC(=O)[C@H](CC(C)C)N(C)C(=O)C[C@@H](C(=O)N2CCOCC2)N(C)C(=O)[C@H](C2CCCC2)N(C)C(=O)C2(CCCC2)NC(=O)[C@@H]2CCCN2C(=O)[C@H](CCc2ccc(C(F)(F)F)c(Cl)c2)NC(=O)CN(C)C(=O)[C@@H]1Cc1ccc(C(F)(F)F)cc1` [PP0130] ([NMeL]I[Sar][Sar][X28][Sar][hPhe(3-Cl-4-CF3)]P[Ac5c][NMeGly(cPent)][NMeD]-Morpholide; lactam N-11), the “NRAS/KRAS (ratio of KD for GDP-bound NRAS wild-type to KD for KRAS)” value in assay [1] was “C (A compound having a KD ratio of 0.1 or more and less than 3 is denoted as C)”. Also, the “HRAS/KRAS (ratio of KD for GDP-bound HRAS wild-type to KD for KRAS)” value in assay [2] was “C (A compound having a KD ratio of 0.1 or more and less than 3 is denoted as C)”.
Regarding `CC[C@H](C)[C@@H]1NC(=O)[C@H](CC(C)C)N(C)C(=O)C[C@@H](C(=O)N2CCOCC2)N(C)C(=O)[C@H](C2CCCC2)N(C)C(=O)C2(CCCC2)NC(=O)[C@@H]2CCCN2C(=O)[C@H](CCc2ccc(C(F)(F)F)c(Cl)c2)NC(=O)CN(C)C(=O)[C@H](Cc2ccc(C(F)(F)F)cc2)N(CCC(F)(F)F)C(=O)CN(C)C(=O)CN(C)C1=O` [PP0131] ([NMeL]I[Sar][Sar][X24][Sar][hPhe(3-Cl-4-CF3)]P[Ac5c][NMeGly(cPent)][NMeD]-Morpholide; lactam N-11), in assay [1], the “NRAS/KRAS (ratio of KD for GDP-bound NRAS wild-type to KD for KRAS)” value is “B (a compound having 3 or more and less than 10 is denoted as B)”. Further, in assay [2], the “HRAS/KRAS (ratio of KD for GDP-bound HRAS wild-type to KD for KRAS)” value was “C (A compound having a KD ratio of 0.1 or more and less than 3 is denoted as C)”.
Regarding `CC[C@H](C)[C@@H]1NC(=O)[C@H](CC(C)C)N(C)C(=O)C[C@@H](C(=O)N2CCOCC2)N(C)C(=O)[C@H](C2CCCC2)N(C)C(=O)C2(CCCC2)NC(=O)[C@@H]2CCCN2C(=O)[C@H](CCc2ccc(C(F)(F)F)c(Cl)c2)NC(=O)CN(C)C(=O)[C@H](Cc2ccc(C(F)(F)F)cc2)N(CCOC)C(=O)CN(C)C(=O)CN(C)C1=O` [PP0132] ([NMeL]I[Sar][Sar][X32][Sar][hPhe(3-Cl-4-CF3)]P[Ac5c][NMeGly(cPent)][NMeD]-Morpholide; lactam N-11), in assay [1], the “NRAS/KRAS (ratio of KD for GDP-bound NRAS wild-type to KD for KRAS)” value is “C (A compound having a KD ratio of 0.1 or more and less than 3 is denoted as C)”. The “HRAS/KRAS (ratio of KD for GDP-bound HRAS wild-type to KD for KRAS)” value in assay [2] is “C (A compound having a KD ratio of 0.1 or more and less than 3 is denoted as C)”.
Regarding `CC[C@H](C)[C@@H]1NC(=O)[C@H](CC(C)C)N(C)C(=O)C[C@@H](C(=O)N2CCOCC2)N(C)C(=O)[C@H](C2CCCC2)N(C)C(=O)C2(CCCC2)NC(=O)[C@@H]2CCCN2C(=O)[C@H](CCc2ccc(C(F)(F)F)c(Cl)c2)NC(=O)CN(C)C(=O)[C@H](Cc2ccc(C(F)(F)F)cc2)N(CCCOC)C(=O)CN(C)C(=O)CN(C)C1=O` [PP0133] ([NMeL]I[Sar][Sar][X42][Sar][hPhe(3-Cl-4-CF3)]P[Ac5c][NMeGly(cPent)][NMeD]-Morpholide; lactam N-11), the “NRAS/KRAS (ratio of KD for GDP-bound NRAS wild-type to KD for KRAS)” value in assay [1] is “B (a compound having 3 or more and less than 10 is denoted as B)”. Also, the “HRAS/KRAS (ratio of KD for GDP-bound HRAS wild-type to KD for KRAS)” value in assay [2] is “C (A compound having a KD ratio of 0.1 or more and less than 3 is denoted as C)”.
Regarding `CCCN1C(=O)[C@@H]2CCN2C(=O)[C@H](C)N(C)C(=O)[C@H]([C@@H](C)CC)NC(=O)[C@H](CC(C)C)N(C)C(=O)C[C@@H](C(=O)N2CCOCC2)N(C)C(=O)[C@H](C2CCCC2)N(C)C(=O)C2(CCCC2)NC(=O)[C@@H]2CCCN2C(=O)[C@H](CCc2ccc(C(F)(F)F)c(Cl)c2)NC(=O)CN(C)C(=O)[C@@H]1Cc1ccc(OC)cc1` [PP0134] ([NMeL]I[NMeA][Aze][X40][Sar][hPhe(3-Cl-4-CF3)]P[Ac5c][NMeGly(cPent)][NMeD]-Morpholide; lactam N-11), the “NRAS/KRAS (ratio of KD for GDP-bound NRAS wild-type to KD for KRAS)” value in assay [1] is “C (A compound having a KD ratio of 0.1 or more and less than 3 is denoted as C)”. For the same molecule, the “HRAS/KRAS (ratio of KD for GDP-bound HRAS wild-type to KD for KRAS)” value in assay [2] is “B (a compound having 3 or more and less than 10 is denoted as B)”.
